Test results: article PMC5218480 (PLoS ONE, 2017)

System: MV-4-11 cells
Experiment: Gene expression microarray analysis (Affymetrix PrimeView) and GSEA
Format: cell-based, human
Set-up: RFU PODN (11730768_x_at) / Fold change /veh PODN (11730768_x_at) / RFU LINC00158 (11744669_a_at) / Fold change /veh LINC00158 (11744669_a_at) / RFU DUSP10 (11751237_a_at) / Fold change /veh DUSP10 (11751237_a_at) / RFU ID3 (11757404_x_at) / Fold change /veh ID3 (11757404_x_at) / RFU PLEKHG5 (11737974_s_at) / Fold change /veh PLEKHG5 (11737974_s_at) / RFU LRRC4B (11730491_at) / Fold change /veh LRRC4B (11730491_at) / RFU GIMAP4 (11747438_a_at) / Fold change /veh GIMAP4 (11747438_a_at) / RFU KRT8 (11758183_x_at) / Fold change /veh KRT8 (11758183_x_at) / RFU CNN1 (11734310_a_at) / Fold change /veh CNN1 (11734310_a_at) / RFU VPS37D (11726825_at) / Fold change /veh VPS37D (11726825_at) / RFU C10orf10 (11716522_x_at) / Fold change /veh C10orf10 (11716522_x_at) / RFU KIR2DL2 /// KIR2DL4 /// KIR2DL5A /// KIR2DL5B /// KIR2DS1 /// KIR2DS2 /// KIR2DS3 /// KIR2DS4 /// KIR3DL3 /// KIR3DL3 /// KIR3DS1 (11738374_at) / Fold change /veh KIR2DL2 /// KIR2DL4 /// KIR2DL5A /// KIR2DL5B /// KIR2DS1 /// KIR2DS2 /// KIR2DS3 /// KIR2DS4 /// KIR3DL3 /// KIR3DL3 /// KIR3DS1 (11738374_at) / RFU C1QL1 (11718748_at) / Fold change /veh C1QL1 (11718748_at) / RFU TMPRSS4 (11747572_a_at) / Fold change /veh TMPRSS4 (11747572_a_at) / RFU HAMP (11756126_x_at) / Fold change /veh HAMP (11756126_x_at) / RFU RNFT2 (11725882_a_at) / Fold change /veh RNFT2 (11725882_a_at) / RFU NR4A2 (11747474_a_at) / Fold change /veh NR4A2 (11747474_a_at) / RFU ABCC12 (11746883_a_at) / Fold change /veh ABCC12 (11746883_a_at) / RFU TMEM136 (11760407_x_at) / Fold change /veh TMEM136 (11760407_x_at) / RFU CLDN22 /// WWC2 (11732394_at) / Fold change /veh CLDN22 /// WWC2 (11732394_at) / RFU HLA-DPB1 (11760878_x_at) / Fold change /veh HLA-DPB1 (11760878_x_at) / RFU SPINT1 (11716480_a_at) / Fold change /veh SPINT1 (11716480_a_at) / RFU GAP43 (11754022_s_at) / Fold change /veh GAP43 (11754022_s_at) / RFU A4GNT (11735810_at) / Fold change /veh A4GNT (11735810_at) / RFU PRB3 (11715151_x_at) / Fold change /veh PRB3 (11715151_x_at) / RFU TUBB4B (11761932_at) / Fold change /veh TUBB4B (11761932_at) / RFU CAPN14 (11732068_a_at) / Fold change /veh CAPN14 (11732068_a_at) / RFU TMCC2 (11721928_a_at) / Fold change /veh TMCC2 (11721928_a_at) / RFU IRGQ (11745062_a_at) / Fold change /veh IRGQ (11745062_a_at) / RFU FAM174B (11720279_a_at) / Fold change /veh FAM174B (11720279_a_at) / RFU TMPRSS4 (11748680_a_at) / Fold change /veh TMPRSS4 (11748680_a_at) / RFU FAM212B (11763350_a_at) / Fold change /veh FAM212B (11763350_a_at) / RFU PLEKHG5 (11743358_a_at) / Fold change /veh PLEKHG5 (11743358_a_at) / RFU ZSCAN30 (11745921_a_at) / Fold change /veh ZSCAN30 (11745921_a_at) / RFU CMKLR1 (11741424_a_at) / Fold change /veh CMKLR1 (11741424_a_at) / RFU LOC101060620 /// MAPK8IP1 (11723275_at) / Fold change /veh LOC101060620 /// MAPK8IP1 (11723275_at) / RFU SPTSSB (11747773_x_at) / Fold change /veh SPTSSB (11747773_x_at) / RFU PRSS12 (11739890_at) / Fold change /veh PRSS12 (11739890_at) / RFU BIN1 (11741810_x_at) / Fold change /veh BIN1 (11741810_x_at) / RFU WNT11 (11732464_a_at) / Fold change /veh WNT11 (11732464_a_at) / RFU C10orf10 (11716521_a_at) / Fold change /veh C10orf10 (11716521_a_at) / RFU C5orf56 (11738089_at) / Fold change /veh C5orf56 (11738089_at) / RFU CYB561 (11721691_x_at) / Fold change /veh CYB561 (11721691_x_at) / RFU ANKRD19P (11752326_a_at) / Fold change /veh ANKRD19P (11752326_a_at) / RFU OR2T12 /// OR2T33 /// OR2T8 (11738714_s_at) / Fold change /veh OR2T12 /// OR2T33 /// OR2T8 (11738714_s_at) / RFU VCAN (11748164_a_at) / Fold change /veh VCAN (11748164_a_at) / RFU JSRP1 (11732532_at) / Fold change /veh JSRP1 (11732532_at) / RFU KRTAP10-11 (11738290_x_at) / Fold change /veh KRTAP10-11 (11738290_x_at) / RFU MYO3A (11730013_a_at) / Fold change /veh MYO3A (11730013_a_at) / RFU EBF3 (11725865_a_at) / Fold change /veh EBF3 (11725865_a_at) / RFU CAMK2N1 (11719241_x_at) / Fold change /veh CAMK2N1 (11719241_x_at) / RFU C5orf56 (11738088_a_at) / Fold change /veh C5orf56 (11738088_a_at) / RFU OLFML3 (11715873_a_at) / Fold change /veh OLFML3 (11715873_a_at) / RFU LOC100653217 /// NTM (11731650_a_at) / Fold change /veh LOC100653217 /// NTM (11731650_a_at) / RFU MAPK11 (11762145_a_at) / Fold change /veh MAPK11 (11762145_a_at) / RFU FIZ1 (11724087_x_at) / Fold change /veh FIZ1 (11724087_x_at) / RFU OASL (11726364_x_at) / Fold change /veh OASL (11726364_x_at) / RFU SOX15 (11748057_x_at) / Fold change /veh SOX15 (11748057_x_at) / RFU CD79A (11719716_a_at) / Fold change /veh CD79A (11719716_a_at) / RFU HIST1H1D (11736915_at) / Fold change /veh HIST1H1D (11736915_at) / RFU CASKIN2 (11723855_a_at) / Fold change /veh CASKIN2 (11723855_a_at) / RFU LOC730098 (11760151_x_at) / Fold change /veh LOC730098 (11760151_x_at) / RFU OR4N2 (11742367_at) / Fold change /veh OR4N2 (11742367_at) / RFU PRRT2 (11749266_a_at) / Fold change /veh PRRT2 (11749266_a_at) / RFU SNX32 (11753110_a_at) / Fold change /veh SNX32 (11753110_a_at) / RFU CDHR5 (11726645_a_at) / Fold change /veh CDHR5 (11726645_a_at) / RFU RCAN1 (11760418_a_at) / Fold change /veh RCAN1 (11760418_a_at) / RFU FAM167A (11723789_a_at) / Fold change /veh FAM167A (11723789_a_at) / RFU FAM26E (11764081_at) / Fold change /veh FAM26E (11764081_at) / RFU ISYNA1 (11749810_s_at) / Fold change /veh ISYNA1 (11749810_s_at) / RFU ACY1 (11761880_at) / Fold change /veh ACY1 (11761880_at) / RFU 11764098_at / Fold change /veh 11764098_at / RFU SAMD14 (11745864_x_at) / Fold change /veh SAMD14 (11745864_x_at) / RFU NPB (11741838_a_at) / Fold change /veh NPB (11741838_a_at) / RFU TMPRSS6 (11731388_a_at) / Fold change /veh TMPRSS6 (11731388_a_at) / RFU KRTAP10-2 (11738614_at) / Fold change /veh KRTAP10-2 (11738614_at) / RFU ARHGAP8 /// PRR5-ARHGAP8 (11727945_x_at) / Fold change /veh ARHGAP8 /// PRR5-ARHGAP8 (11727945_x_at) / RFU KRTAP5-7 /// NADSYN1 (11734609_at) / Fold change /veh KRTAP5-7 /// NADSYN1 (11734609_at) / RFU RASL12 (11751679_a_at) / Fold change /veh RASL12 (11751679_a_at) / RFU CDKN2B (11736163_a_at) / Fold change /veh CDKN2B (11736163_a_at) / RFU PRF1 (11729649_at) / Fold change /veh PRF1 (11729649_at) / RFU, ZNF638 /// ZNF638-IT1 / Fold change vs veh, ZNF638 /// ZNF638-IT1 / RFU, PANK3 / Fold change vs veh, PANK3 / RFU, SH3YL1 / Fold change vs veh, SH3YL1 / RFU, ZEB2 / Fold change vs veh, ZEB2 / RFU, NRIP1 / Fold change vs veh, NRIP1 / RFU, PTTG1IP / Fold change vs veh, PTTG1IP / RFU, CAPN2 / Fold change vs veh, CAPN2 / RFU, MED14 / Fold change vs veh, MED14 / RFU, SNORA58 / Fold change vs veh, SNORA58 / RFU, C1orf63 / Fold change vs veh, C1orf63 / RFU, LRRFIP1 / Fold change vs veh, LRRFIP1 / RFU, NDUFAF7 / Fold change vs veh, NDUFAF7 / RFU, SLC12A2 / Fold change vs veh, SLC12A2 / RFU, IBTK / Fold change vs veh, IBTK / RFU, ESF1 / Fold change vs veh, ESF1 / Fold change vs veh, TMEM50B / RFU, TAOK1 / Fold change vs veh, TAOK1 / RFU, ACBD3 / Fold change vs veh, ACBD3 / RFU, TMA16 / Fold change vs veh, TMA16 / RFU, RWDD3 / Fold change vs veh, RWDD3 / RFU, BCAT1 / Fold change vs veh, BCAT1 / RFU, EDEM3 / Fold change vs veh, EDEM3 / RFU, TMEM33 / Fold change vs veh, TMEM33 / RFU, WDR75 / Fold change vs veh, WDR75 / RFU, AHCTF1 / Fold change vs veh, AHCTF1 / RFU, TFRC / Fold change vs veh, TFRC / RFU, ZDHHC17 / Fold change vs veh, ZDHHC17 / RFU, NOM1 / Fold change vs veh, NOM1 / RFU, ARL8B / Fold change vs veh, ARL8B / RFU, ZBTB11 / Fold change vs veh, ZBTB11 / RFU, TAMM41 / Fold change vs veh, TAMM41 / RFU, KIAA1704 /// LOC100996395 / Fold change vs veh, KIAA1704 /// LOC100996395 / RFU, ING1 / Fold change vs veh, ING1 / RFU, TRMT61B / Fold change vs veh, TRMT61B / RFU, FUBP3 / Fold change vs veh, FUBP3 / RFU, TP53 / Fold change vs veh, TP53 / RFU, TNKS2 / Fold change vs veh, TNKS2 / RFU, ZFP14 / Fold change vs veh, ZFP14 / RFU, ACTR2 / Fold change vs veh, ACTR2 / RFU, PPP3R1 / Fold change vs veh, PPP3R1 / RFU, PIK3R1 / Fold change vs veh, PIK3R1 / RFU, HNRNPA1 / Fold change vs veh, HNRNPA1 / RFU, RNF170 / Fold change vs veh, RNF170 / RFU, ZNF28 / Fold change vs veh, ZNF28 / RFU, RNGTT / Fold change vs veh, RNGTT / RFU, OGT / Fold change vs veh, OGT / RFU, BRD1 / Fold change vs veh, BRD1 / RFU, MARS / Fold change vs veh, MARS / RFU, ZNF655 / Fold change vs veh, ZNF655 / RFU, FAHD1 / Fold change vs veh, FAHD1 / RFU, BDP1 / Fold change vs veh, BDP1 / RFU, LRRCC1 / Fold change vs veh, LRRCC1 / RFU, ARID1A / Fold change vs veh, ARID1A / RFU, ZNF146 / Fold change vs veh, ZNF146 / RFU, ZNF330 / Fold change vs veh, ZNF330 / RFU, GPN3 / Fold change vs veh, GPN3 / RFU, C9orf123 / Fold change vs veh, C9orf123 / RFU, N4BP2L2 / Fold change vs veh, N4BP2L2 / RFU, ARFIP1 / Fold change vs veh, ARFIP1 / RFU, FAM179B / Fold change vs veh, FAM179B / RFU, BCL10 / Fold change vs veh, BCL10 / RFU, UHRF1BP1L / Fold change vs veh, UHRF1BP1L / RFU, BET1 / Fold change vs veh, BET1 / RFU, CNOT2 / Fold change vs veh, CNOT2 / RFU, ZNF268 / Fold change vs veh, ZNF268 / Fold change vs veh, ZNF507 / RFU, DGCR2 / Fold change vs veh, DGCR2 / RFU, WDSUB1 / Fold change vs veh, WDSUB1 / Fold change vs veh, HSP90B1 /// MIR3652 / RFU, ADSS / Fold change vs veh, ADSS / RFU, GK / Fold change vs veh, GK / RFU, ZNF148 / Fold change vs veh, ZNF148 / RFU, TAF9 / Fold change vs veh, TAF9 / RFU, SLC1A5 / Fold change vs veh, SLC1A5 / RFU, SLMO2 / Fold change vs veh, SLMO2 / RFU, ABCC4 / Fold change vs veh, ABCC4 / RFU, LOC101060439 /// RAP1B / Fold change vs veh, LOC101060439 /// RAP1B / RFU, RFX7 / Fold change vs veh, RFX7 / RFU, GTPBP10 / Fold change vs veh, GTPBP10 / RFU, CNEP1R1 / Fold change vs veh, CNEP1R1 / RFU, BIVM-ERCC5 /// ERCC5 / Fold change vs veh, BIVM-ERCC5 /// ERCC5 / RFU, ILF3 / Fold change vs veh, ILF3 / RFU 11762660_at / Fold change /veh 11762660_at / RFU VCAN (11757783_s_at) / Fold change /veh VCAN (11757783_s_at) / RFU DDX43 (11728927_at) / Fold change /veh DDX43 (11728927_at) / RFU KRT8 (11758188_x_at) / Fold change /veh KRT8 (11758188_x_at) / RFU NKD1 (11759106_at) / Fold change /veh NKD1 (11759106_at) / RFU SRD5A1 (11742802_a_at) / Fold change /veh SRD5A1 (11742802_a_at) / RFU TPSAB1 /// TPSB2 (11721975_s_at) / Fold change /veh TPSAB1 /// TPSB2 (11721975_s_at) / RFU GSTM3 (11746129_a_at) / Fold change /veh GSTM3 (11746129_a_at) / RFU IL23R (11737362_x_at) / Fold change /veh IL23R (11737362_x_at) / RFU TMEM51 (11727254_a_at) / Fold change /veh TMEM51 (11727254_a_at) / RFU PIWIL2 (11732686_x_at) / Fold change /veh PIWIL2 (11732686_x_at) / RFU ORM1 (11744905_x_at) / Fold change /veh ORM1 (11744905_x_at) / RFU CCDC152 (11743942_at) / Fold change /veh CCDC152 (11743942_at) / RFU ECM1 (11717891_a_at) / Fold change /veh ECM1 (11717891_a_at) / RFU IL23R (11748794_a_at) / Fold change /veh IL23R (11748794_a_at) / RFU TNFAIP8L3 (11732012_x_at) / Fold change /veh TNFAIP8L3 (11732012_x_at) / RFU MBOAT4 (11741988_at) / Fold change /veh MBOAT4 (11741988_at) / RFU 11764193_at / Fold change /veh 11764193_at / RFU TMEM53 (11763286_at) / Fold change /veh TMEM53 (11763286_at) / RFU MAGEB2 (11727129_at) / Fold change /veh MAGEB2 (11727129_at) / RFU TMEM200A (11744735_a_at) / Fold change /veh TMEM200A (11744735_a_at) / RFU CCDC152 (11751479_a_at) / Fold change /veh CCDC152 (11751479_a_at) / RFU FAM211A (11726209_a_at) / Fold change /veh FAM211A (11726209_a_at) / RFU RGS16 (11746705_a_at) / Fold change /veh RGS16 (11746705_a_at) / RFU VCAN (11755009_s_at) / Fold change /veh VCAN (11755009_s_at) / RFU RHOB (11743442_s_at) / Fold change /veh RHOB (11743442_s_at) / RFU RGS16 (11720943_a_at) / Fold change /veh RGS16 (11720943_a_at) / RFU RGS16 (11720944_at) / Fold change /veh RGS16 (11720944_at) / RFU, VPS4B / Fold change vs veh, VPS4B / RFU, CREB1 / Fold change vs veh, CREB1 / RFU, DNAJC13 / Fold change vs veh, DNAJC13 / RFU, GNAQ / Fold change vs veh, GNAQ / RFU, CDK5R1 / Fold change vs veh, CDK5R1 / RFU, ZRANB3 / Fold change vs veh, ZRANB3 / RFU, CUL4A / Fold change vs veh, CUL4A / RFU, CCNY / Fold change vs veh, CCNY / RFU, UFL1 / Fold change vs veh, UFL1 / RFU, COG3 / Fold change vs veh, COG3 / RFU, DIAPH2 / Fold change vs veh, DIAPH2 / RFU, SKA2 / Fold change vs veh, SKA2 / RFU, AFF3 / Fold change vs veh, AFF3 / RFU, LMF1 / Fold change vs veh, LMF1 / RFU, IPO11 / Fold change vs veh, IPO11 / RFU, DFFB / Fold change vs veh, DFFB / RFU, FOXP1 / Fold change vs veh, FOXP1 / RFU, CARD8 / Fold change vs veh, CARD8 / RFU, STRN3 / Fold change vs veh, STRN3 / RFU, ADK / Fold change vs veh, ADK / RFU, RASSF2 / Fold change vs veh, RASSF2 / RFU, WIPF1 / Fold change vs veh, WIPF1 / RFU, LARP1B / Fold change vs veh, LARP1B / RFU, RASA1 / Fold change vs veh, RASA1 / RFU, RB1 / Fold change vs veh, RB1 / RFU, PPFIA1 / Fold change vs veh, PPFIA1 / RFU, MAT2A / Fold change vs veh, MAT2A / RFU, CCT5 / Fold change vs veh, CCT5 / RFU, WDR92 / Fold change vs veh, WDR92 / RFU, CUX1 / Fold change vs veh, CUX1 / RFU, TTC7A / Fold change vs veh, TTC7A / RFU, TMEM135 / Fold change vs veh, TMEM135 / RFU, DEPTOR / Fold change vs veh, DEPTOR / RFU, CPM / Fold change vs veh, CPM / RFU, DNAJB6 / Fold change vs veh, DNAJB6 / RFU, CACNA2D3 / Fold change vs veh, CACNA2D3 / RFU, DTX4 / Fold change vs veh, DTX4 / RFU, TFCP2 / Fold change vs veh, TFCP2 / RFU, GMCL1 /// GMCL1P1 / Fold change vs veh, GMCL1 /// GMCL1P1 / RFU, AEBP2 / Fold change vs veh, AEBP2 / RFU, SNHG1 /// SNORD22 /// SNORD25 /// SNORD26 /// SNORD27 /// SNORD28 /// SNORD29 /// SNORD31 / Fold change vs veh, SNHG1 /// SNORD22 /// SNORD25 /// SNORD26 /// SNORD27 /// SNORD28 /// SNORD29 /// SNORD31 / Fold change (Aza/veh), C12orf56 (ProbeSet 11735607_a_at) / Fold change (ACY-1035/veh), C12orf56 (ProbeSet 11735607_a_at) / Fold change (Aza/veh), FGFR1OP (ProbeSet 11751329_s_at) / Fold change (ACY-1035/veh), FGFR1OP (ProbeSet 11751329_s_at) / Fold change (Aza/veh), VPS36 (ProbeSet 11739960_a_at) / Fold change (ACY-1035/veh), VPS36 (ProbeSet 11739960_a_at) / RFU SYPL1 (11715823_x_at) / Fold change /veh SYPL1 (11715823_x_at) / RFU IGFBP7 (11715501_s_at) / Fold change /veh IGFBP7 (11715501_s_at) / RFU REEP3 (11722064_at) / Fold change /veh REEP3 (11722064_at) / RFU IGLL1 (11728026_x_at) / Fold change /veh IGLL1 (11728026_x_at): dose or concentration left out as unconfirmed
Conditions: ProbeSet 11743362_s_at; LIST B

Nc1ccc(-c2cccs2)cc1NC(=O)c1ccc2c(c1)cc(C1CC1)n2CCN1CCOCC1 [ACY-1035]
RFU, ADSS: 662.69 RFU
